Patent US20220273664A1, “Mitochondrial Targeted Releasable Linker” (THE GOVERNING COUNCIL OF THE UNIVERSITY OF TORONTO, priority 2017, published 2022)

How the values were obtained:
K562 cells [1] = assay: toxicity at different time points in K562 cells; type: cell-based; settings: K562 leukemia cells, up to 48 hours
From the text: FIG. 7A is a graphical representation of the toxicity of compound 5 at different time points in K562 cells.
FIG. 7B is a graphical representation of the toxicity of compound 6 at different time points in K562 cells.
FIG. 10 is a graphical representation of the toxicity of luminespib (compound 7, as shown in FIG. 6C) at different time points in K562 cells.

K562 cells [2] = assay: apoptosis measured via Annexin V staining; type: cell-based; settings: 2.5 μM, 24 hours
Procedure: FIG. 8A is a chart illustrating apoptosis as measured via Annexin V staining of K562 cells treated for 24 hours with 2.5 μM of the compounds indicated. Cell populations were gated with annexin V+/Sytox red− cells as early apoptotic, and annexin V+/Sytox red+ cells as late apoptotic.
As controls, the parent compound luminespib (FIG. 8C, compound 7), and the empty disulfide vector (FIG. 6D) were also tested. The cells were treated with 2.5 μM of each compound.

CCNC(=O)c1noc(-c2cc(C(C)C)c(O)cc2O)c1-c1ccc(CN2CCOCC2)cc1 [luminespib, 5-(2,4-Dihydroxy-5-isopropylphenyl)-N-ethyl-4-(4-(morpholinomethyl)phenyl)isoxazole-3-carboxamide]
cell toxicity over time (K562 cells [1]): growth inhibition
apoptosis (early and late apoptotic cell populations) (K562 cells [2]): no increase
